The record followed here is patent US9302991B2, “Arylamide derivatives as TTX-S blockers” (RaQualia Pharma Inc., priority 2010, dated 2016).

The target in this assay is T1, human Nav1.7 channels (Homo sapiens, UniProt Q15858).
T1 construct: expressed in transfected cells; host or cells: CHO
Put plainly: FRET assay, human Nav1.7 (EFS on FDSS). Particulars: CHO cells expressing human Nav1.7, read-out: IC50 against Nav1.7. It is filed as cell-based. The essentials:
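CHO cells stably expressing the channel, loaded with CC2-DMPE (10 µM) then DiSBAC2(3) (15 µM) plus VABSC-1, in HEPES-buffered saline pH 7.4 at room temperature. Electrical field stimulation on FDSS; FRET ratio at 440 nm fitted for IC50.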

Molecules are shown by their SMILES.

T1 sequence (Q15858 whole entry): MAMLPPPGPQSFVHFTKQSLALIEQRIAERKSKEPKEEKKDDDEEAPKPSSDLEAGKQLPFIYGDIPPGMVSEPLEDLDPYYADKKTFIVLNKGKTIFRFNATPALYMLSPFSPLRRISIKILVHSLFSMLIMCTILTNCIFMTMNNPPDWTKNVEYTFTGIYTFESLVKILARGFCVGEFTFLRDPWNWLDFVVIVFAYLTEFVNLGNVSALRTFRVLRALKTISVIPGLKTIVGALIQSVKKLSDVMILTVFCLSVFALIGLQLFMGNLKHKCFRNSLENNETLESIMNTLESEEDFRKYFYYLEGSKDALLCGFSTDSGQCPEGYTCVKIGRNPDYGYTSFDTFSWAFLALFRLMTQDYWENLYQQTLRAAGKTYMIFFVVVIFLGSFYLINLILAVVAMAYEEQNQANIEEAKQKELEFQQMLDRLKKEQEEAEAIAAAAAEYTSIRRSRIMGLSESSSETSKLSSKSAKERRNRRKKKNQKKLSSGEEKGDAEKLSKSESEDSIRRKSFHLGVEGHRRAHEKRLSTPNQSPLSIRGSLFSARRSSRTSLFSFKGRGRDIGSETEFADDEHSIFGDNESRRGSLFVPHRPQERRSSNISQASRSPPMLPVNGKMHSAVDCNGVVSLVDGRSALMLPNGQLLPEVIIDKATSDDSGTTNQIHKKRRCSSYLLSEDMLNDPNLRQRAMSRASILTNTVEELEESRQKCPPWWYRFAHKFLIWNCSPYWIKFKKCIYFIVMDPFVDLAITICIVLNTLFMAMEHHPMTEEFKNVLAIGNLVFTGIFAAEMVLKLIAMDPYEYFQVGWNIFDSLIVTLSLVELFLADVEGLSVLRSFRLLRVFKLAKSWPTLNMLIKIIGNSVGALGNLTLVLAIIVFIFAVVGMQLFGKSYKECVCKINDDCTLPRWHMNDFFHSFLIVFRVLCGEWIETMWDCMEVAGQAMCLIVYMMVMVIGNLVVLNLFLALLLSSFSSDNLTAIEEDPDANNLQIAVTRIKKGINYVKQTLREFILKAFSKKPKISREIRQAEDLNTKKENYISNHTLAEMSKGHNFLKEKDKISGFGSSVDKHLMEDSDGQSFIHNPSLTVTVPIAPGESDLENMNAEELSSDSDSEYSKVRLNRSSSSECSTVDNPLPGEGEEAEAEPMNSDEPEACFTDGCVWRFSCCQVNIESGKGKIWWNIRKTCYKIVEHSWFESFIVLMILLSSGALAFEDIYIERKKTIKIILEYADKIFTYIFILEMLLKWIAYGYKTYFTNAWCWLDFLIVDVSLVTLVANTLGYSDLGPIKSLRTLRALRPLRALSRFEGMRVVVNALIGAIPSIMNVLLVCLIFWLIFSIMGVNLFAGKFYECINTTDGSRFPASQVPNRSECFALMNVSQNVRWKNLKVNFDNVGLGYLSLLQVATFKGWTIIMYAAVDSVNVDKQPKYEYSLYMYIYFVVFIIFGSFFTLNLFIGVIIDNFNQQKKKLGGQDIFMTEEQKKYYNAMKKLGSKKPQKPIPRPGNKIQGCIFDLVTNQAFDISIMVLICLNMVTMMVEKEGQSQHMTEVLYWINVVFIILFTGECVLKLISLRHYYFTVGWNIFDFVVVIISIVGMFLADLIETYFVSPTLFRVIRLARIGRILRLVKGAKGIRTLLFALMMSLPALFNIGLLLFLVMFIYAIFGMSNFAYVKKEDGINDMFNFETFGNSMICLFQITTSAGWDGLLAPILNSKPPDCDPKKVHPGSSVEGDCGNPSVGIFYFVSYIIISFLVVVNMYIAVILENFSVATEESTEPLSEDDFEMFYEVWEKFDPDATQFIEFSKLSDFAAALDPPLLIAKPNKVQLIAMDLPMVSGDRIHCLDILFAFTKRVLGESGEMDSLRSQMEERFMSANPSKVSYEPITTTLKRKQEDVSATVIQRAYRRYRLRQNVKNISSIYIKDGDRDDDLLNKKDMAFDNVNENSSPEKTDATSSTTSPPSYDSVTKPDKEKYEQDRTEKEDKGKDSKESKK

Regarding `CC(=O)Nc1cc(C(=O)NC(C)c2ccc(OCC(F)(F)F)cc2Cl)ccn1` (single isomer, unassigned) [Example 796, 2-acetamido-N-(1-(2-chloro-4-(2,2,2-trifluoroethoxy)phenyl)ethyl)isonicotinamide], the 50% inhibitory concentration (IC50) was less than 1 µM. In the case of `CCC(=O)Nc1cc(C(=O)NC(C)c2ccc(OCC(F)(F)F)cc2Cl)ccn1` (single isomer, unassigned) [Example 797, N-(1-(2-chloro-4-(2,2,2-trifluoroethoxy)phenyl)ethyl)-2-propionamidoisonicotinamide], the half-inhibitory concentration (IC50) is less than 1 µM. As for `CC(NC(=O)c1ccnc(NC(=O)C2CC2)c1)c1ccc(OCC(F)(F)F)cc1Cl` (single isomer, unassigned) [Example 798, N-(1-(2-chloro-4-(2,2,2-trifluoroethoxy)phenyl)ethyl)-2-(cyclopropanecarboxamido)isonicotinamide], the IC50 was less than 1 µM. Consider `CC(C)C(=O)Nc1cc(C(=O)NC(C)c2ccc(OCC(F)(F)F)cc2Cl)ccn1` (single isomer, unassigned) [Example 799, N-(1-(2-chloro-4-(2,2,2-trifluoroethoxy)phenyl)ethyl)-2-isobutyramidoisonicotinamide], for which the half-inhibitory concentration (IC50) is less than 1 µM. As for `CC(=O)Nc1cc(C(=O)NC(C)c2ccc(OCC(F)(F)F)cc2Cl)cc(C)n1` (single isomer, unassigned) [Example 800, 2-acetamido-N-(1-(2-chloro-4-(2,2,2-trifluoroethoxy)phenyl)ethyl)-6-methylisonicotinamide], the concentration for half-maximal inhibition (IC50) is less than 1 µM. In the case of `Cc1cc(C(=O)NC(C)c2ccc(OCC(F)(F)F)cc2Cl)cc(NC(=O)C(C)C)n1` (single isomer, unassigned) [Example 801, N-(1-(2-chloro-4-(2,2,2-trifluoroethoxy)phenyl)ethyl)-2-isobutyramido-6-methylisonicotinamide] it was less than 1 µM; in that of `CC(NC(=O)c1ccnc(NC(=O)C2CC2)n1)c1ccc(OCC(F)(F)F)cc1Cl` (single isomer, unassigned) [Example 802, N-(1-(2-chloro-4-(2,2,2-trifluoroethoxy)phenyl)ethyl)-2-(cyclopropanecarboxamido)pyrimidine-4-carboxamide], less than 1 µM; in that of `Cc1cc(C(=O)NC(C)c2ccc(OCC(F)(F)F)cc2Cl)nc(NC(=O)C2CC2)n1` (single isomer, unassigned) [Example 803, N-(1-(2-chloro-4-(2,2,2-trifluoroethoxy)phenyl)ethyl)-2-(cyclopropanecarboxamido)-6-methylpyrimidine-4-carboxamide], less than 1 µM. In the case of `Cc1cc(C(=O)NC(C)c2ccc(OCC(F)(F)C(F)F)nc2)cc(NC(=O)C2CC2)n1` (single isomer, unassigned) [Example 828] it was less than 1 µM; in that of `Cc1cc(C(=O)NC(C)c2ccc(OCC(F)(F)C(F)(F)F)nc2)cc(NC(=O)C2CC2)n1` (single isomer, unassigned) [Example 837, 2-(cyclopropanecarboxamido)-6-methyl-N-(1-(6-(2,2,3,3,3-pentafluoropropoxy)pyridin-3-yl)ethyl)isonicotinamide], less than 1 µM; in that of `Cc1cc(C(=O)N[C@H](C)c2cccc(C(F)(F)F)c2)cc(NC(=O)C2CC2)n1` (single isomer, unassigned) [Example 838], less than 1 µM. Next, `Cc1cc(C(=O)NC(C)c2cccc(OC(F)(F)F)c2)cc(NC(=O)C2CC2)n1` (single isomer, unassigned) [Example 839, 2-(cyclopropanecarboxamido)-6-methyl-N-(1-(3-(trifluoromethoxy)phenyl)ethyl)isonicotinamide]: less than 1 µM; `Cc1cc(C(C)NC(=O)c2ccnc(NC(=O)C(C)C)c2)ccc1OCC(F)F` (single isomer, unassigned) [Example 862, N-(1-(4-(2,2-difluoroethoxy)-3-methylphenyl)ethyl)-2-isobutyramidoisonicotinamide]: less than 1 µM; `Cc1cc(C(C)NC(=O)c2ccnc(NC(=O)C3CC3)n2)ccc1OCC(F)F` (single isomer, unassigned) [Example 863, 2-(cyclopropanecarboxamido)-N-(1-(4-(2,2-difluoroethoxy)-3-methylphenyl)ethyl)pyrimidine-4-carboxamide]: less than 1 µM. Regarding `Cc1cc(C(=O)NC(C)c2ccc(OCC(F)F)c(C)c2)cc(NC(=O)C(C)C)n1` (single isomer, unassigned) [Example 865, N-(1-(4-(2,2-difluoroethoxy)-3-methyphenyl)ethyl)-2-isobutyramido-6-methylisonicotinamide], the IC50 was less than 1 µM. Consider `Cc1cc(C(=O)NC(C)c2ccc(OCC(F)F)c(C)c2)cc(NC(=O)C2CC2)n1` (single isomer, unassigned) [Example 866, 2-(cyclopropanecarboxamido)-N-(1-(4-(2,2-difluoroethoxy)-3-methylphenyl)ethyl)-6-methylisonicotinamide], for which the concentration for half-maximal inhibition (IC50) is less than 1 µM. Next, `Cc1cc(C(=O)NC(C)c2cccc(OCC(F)(F)F)c2)cc(NC(=O)C(C)C)n1` (single isomer, unassigned) [Example 881, 2-isobutyramido-6-methyl-N-(1-(3-(2,2,2-trifluoroethoxy)phenyl)ethyl)isonicotinamide]: less than 1 µM; `CCc1cc(C(C)NC(=O)c2ccnc(NC(=O)C3CC3)n2)cnc1OCC(F)F` (single isomer, unassigned) [Example 890, 2-(cyclopropanecarboxamido)-N-(1-(6-(2,2-difluoroethoxy)-5-ethylpyridin-3-yl)ethyl)pyrimidine-4-carboxamide]: less than 1 µM. Next, `CCc1cc(C(C)NC(=O)c2cc(C)nc(NC(=O)C(C)C)c2)cnc1OCC(F)F` (single isomer, unassigned) [Example 893, N-(1-(6-(2,2-difluoroethoxy)-5-ethylpyridin-3-yl)ethyl)-2-isobutyramido-6-methylisonicotinamide]: less than 1 µM; `CC(=O)Nc1cc(C(=O)NC(C)c2cnc(OCC(F)(F)C(F)F)c(C)c2)ccn1` (single isomer, unassigned) [Example 903, 2-acetamido-N-(1-(5-methyl-6-(2,2,3,3-tetrafluoropropoxy)pyridin-3-yl)ethyl)isonicotinamide]: less than 1 µM.

In the case of `Cc1cc(C(=O)NC(C)c2cnc(OCC(F)(F)C(F)F)c(C)c2)nc(NC(=O)C2CC2)n1` (single isomer, unassigned) [Example 907, 2-(cyclopropanecarboxamido)-6-methyl-N-(1-(5-methyl-6-(2,2,3,3-tetrafluoropropoxy)pyridin-3-yl)ethyl)pyrimidine-4-carboxamide], the IC50 is less than 1 µM. On to `CC(NC(=O)c1ccnc(NC(=O)C2CC2)c1)c1ccc(OCC(F)(F)C(F)F)nc1` (single isomer, unassigned) [Example 922, 2-(cyclopropanecarboxamido)-N-(1-(6-(2,2,3,3-tetrafluoropropoxy)pyridin-3-yl)ethyl)isonicotinamide], for which the concentration for half-maximal inhibition (IC50) was less than 1 µM. In the case of `CC(=O)Nc1cc(C(=O)NC(C)c2ccc(OCC(F)(F)C(F)(F)F)nc2)ccn1` (single isomer, unassigned) [Example 924, 2-acetamido-N-(1-(6-(2,2,3,3,3-pentafluoropropoxy)pyridin-3-yl)ethyl)isonicotinamide] it was less than 1 µM; in that of `CCCC(=O)Nc1cc(C(=O)NC(C)c2cnc(OCC(F)(F)C(F)F)c(C)c2)ccn1` (single isomer, unassigned) [Example 928, 2-butyramido-N-(1-(5-methyl-6-(2,2,3,3-tetrafluoropropoxy)pyridin-3-yl)ethyl)isonicotinamide], less than 1 µM. In the case of `Cc1cc(C(=O)NC(C)c2cnc(OCC(F)F)c(C)c2)cc(NC(=O)C2CC2)n1` (single isomer, unassigned) [Example 938, 2-(cyclopropanecarboxamido)-N-(1-(6-(2,2-difluoroethoxy)-5-methylpyridin-3-yl)ethyl)-6-methylisonicotinamide] it was less than 1 µM; in that of `Cc1cc(C(=O)NC(C)c2cc(C(F)(F)F)ccc2F)cc(NC(=O)C(C)C)n1` (single isomer, unassigned) [Example 980, N-(1-(2-fluoro-5-(trifluoromethyl)phenyl)ethyl)-2-isobutyramido-6-methylisonicotinamide], less than 1 µM.

For the compound `CC(=O)Nc1cc(C(=O)NC(C)c2cc(C(F)(F)F)ccc2F)cc(C)n1` (single isomer, unassigned) [Example 981, 2-acetamido-N-(1-(2-fluoro-5-(trifluoromethyl)phenyl)ethyl)-6-methyl-isonicotinamide], the IC50 is less than 1 µM.

On to `CC(=O)Nc1cc(C(=O)NC(C)c2cccc(OCC(F)(F)F)c2)cc(C)n1` (single isomer, unassigned) [Example 1009, 2-acetamido-6-methyl-N-(1-(3-(2,2,2-trifluoroethoxy)phenyl)ethyl)isonicotinamide], for which the IC50 was less than 1 µM.

As to `CC(C)C(=O)Nc1cc(C(=O)NC(C)c2cccc(SC(F)(F)F)c2)ccn1` (single isomer, unassigned) [Example 1030, 2-isobutyramido-N-(1-(3-((trifluoromethyl)thio)phenyl)ethyl)isonicotinamide], the IC50 is less than 1 µM.

`CC(=O)Nc1cc(C(=O)NC(C)c2cccc(SC(F)(F)F)c2)cc(C)n1` (single isomer, unassigned) [Example 1031, 2-acetamido-6-methyl-N-(1-(3-((trifluoromethyl)thio)phenyl)ethyl)isonicotinamide]: the IC50 is less than 1 µM. Next, `Cc1cc(C(=O)NC(C)c2cccc(SC(F)(F)F)c2)cc(NC(=O)C(C)C)n1` (single isomer, unassigned) [Example 1032, 2-isobutyramido-6-methyl-N-(1-(3-((trifluoromethyl)thio)phenyl)ethyl)isonicotinamide]: less than 1 µM.
